# Measured values: paper PMC12118337, “Development of a Peptide Inhibitor Targeting the C‐SH2 Domain of the SHP2 Phosphatase” (Chembiochem, 2025)
# Residues, ends and D or L forms follow the SMILES beside them. *: point of attachment. 5FAM = O=C1OC2(c3ccc(O)cc3Oc3cc(O)ccc32)c2ccc(C(=O)*)cc21; X1 = O=C(O)C(C(=O)O)*
# Target: T1, SHP2 PTP domain (Homo sapiens, UniProt Q06124)
# T1 construct: SHP2 N-SH2 domain (1–105), C-SH2 domain (106–220), PTP domain (224–541) and; His6 (pETM22 vector) (N, cleaved yes); made in house; host or cells: E. coli BL21(DE3) Tuner
# T1 sequence (Q06124 224-541): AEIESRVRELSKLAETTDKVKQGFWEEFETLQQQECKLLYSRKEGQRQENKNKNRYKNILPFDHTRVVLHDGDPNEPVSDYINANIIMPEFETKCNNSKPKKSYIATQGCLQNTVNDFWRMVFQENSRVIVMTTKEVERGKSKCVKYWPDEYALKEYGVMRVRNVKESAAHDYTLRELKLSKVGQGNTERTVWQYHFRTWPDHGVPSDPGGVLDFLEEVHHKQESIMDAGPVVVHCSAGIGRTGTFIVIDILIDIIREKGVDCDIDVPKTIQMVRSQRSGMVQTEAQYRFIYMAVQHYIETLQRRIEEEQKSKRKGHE
# Assay: FP binding assay, SHP2 PTP domain
# Settings: 100 nM peptide, increasing C-SH2, N-SH2 or PTP domain
# Method: buffer and stored in 5 mL binding buffer at 4°C. His-tagged 3C protease (0.5 mg; EMBL) was added to the pooled eluted fractions and dialysed using Spectra Por Dialysis Tubing (MWCO 6-8 kDa, 23 mm; Spectrum Labs) in 1 L of binding buffer at 4°C for 3 hours, then overnight in fresh buffer. A new column was prepared by loading 2 mL Ni-NTA Agarose (Invitrogen) as a 50% slurry in EtOH. The column was washed with 10 mL H2O to remove the EtOH and equilibrated with 10 mL binding buffer. The protein/3C protease mixture was loaded onto the column and incubated for 1 hour at 4°C on a rocker. […] Protein purification was monitored by SDS-PAGE using NuPAGE 4-12% Bis-Tris Protein Gels (Invitrogen) run in MOPS buffer (50 mM MOPS, 50 mM Tris-HCl pH 7.7, 1 mM EDTA, 0.1% SDS) followed by Coomassie staining using Coomassie Brilliant Blue (Roth). […]
# 4. Fluorescence polarization
# Fluorescence polarization (FP) was used to measure the binding of FAM-labelled peptides to the SHP2 C-SH2, SHP2 N-SH2, SHP2 PTP, CSK SH2 or Src SH2 domains. […]
# concentration of 100 nM in a final volume of 200 µL. […] The FP was immediately measured on a Synergy H1 Microplate Reader (BioTek) with the excitation and emission monitored at 485 nm and 528 nm, respectively, over 30 minutes. FP values were automatically calculated by the Gen5 3.03 (BioTek) software associated with the microplate reader. […]
smiles,measurement,value
CC[C@H](C)[C@H](NC(=O)[C@@H](NC(=O)[C@H](C)NC(=O)[C@H](Cc1ccc(OC(C(=O)O)C(=O)O)cc1)NC(=O)[C@H](CCC(=O)O)NC(=O)[C@@H](NC(=O)[C@H](CCC(N)=O)NC(=O)c1ccc2c(c1)C(=O)OC21c2ccc(O)cc2Oc2cc(O)ccc21)[C@@H](C)O)[C@@H](C)O)C(=O)N[C@@H](CCCCN)C(=O)N[C@@H](Cc1c[nH]cn1)C(=O)N1CCC[C@H]1C(N)=O [peptide 26] (5FAM-QTEY(X1)ATIKHP-NH2),binding selectivity for C‐SH2 over N‐SH2 and PTP domains,maintained binding selectivity
